Data published in US8440790B2, “Crystal structure of the CCZ-LZ domain of NEMO” (Les Laboratoires Servier, priority 2008, dated 2013).

Tests used:
NF-κB pathway = assay: Functional complementation in NEMO-deficient mouse embryo fibroblasts (Igκ-luciferase reporter, TNFα stimulation); type: cell-based; settings: NEMO-deficient MEF transiently transfected with NEMO variant and Igκ-luciferase reporter; TNFα stimulation for 24 hours; compared with wild-type NEMO
Text: The capabilities of the wild-type NEMO protein and of the above-defined mutant NEMO proteins in restoring activation of the NF-κB pathway in response to the proinflammatory cytokine TNF-α are compared and illustrated in FIG. 5. For that purpose, NEMO-deficient mouse embryo fibroblasts (MEF) are transiently co-transfected on the one hand with the plasmid coding for the Igκ-luciferase reporter gene and on the other hand with the plasmids coding for the various proteins, and then stimulated with TNFα for 24 hours. The wild-type protein completely restores the NF-κB pathway whereas TNFα-dependent activation of the NF-κB pathway is affected by the mutant proteins in differing degrees.
NEMO-deficient mouse embryo fibroblasts (MEF) are cultured in cell culture jars and transiently transfected with a mixture containing: 0.2 μg of a plasmid pEF1 coding for β-galactosidase, 0.5 μg of a plasmid containing the Igk-luciferase reporter gene and 2 μg of plasmids expressing the different variants of NEMO. Twenty-four hours after transfection, the cells are activated with TNFα (20 ng/ml) for 24 hours. The cells are then recovered and then lysed in 110 μl of a buffer of 25 mM Tris/Phosphate pH 7.8, 8 mM MgCl2, 1% Triton, 1 mM dithiothreitol, 15% to glycerol to which a cocktail of proteases is added (Roche). […] The activity of the reporter gene is measured.

[1] = Gel filtration of the wild-type CC2-LZ protein and the mutant F312A; type: physicochemical; settings: CC2-LZ domain of NEMO; compared with wild-type CC2-LZ protein
Method: The gel filtration experiments are carried out at 4° C. on a Superdex 75 HR 10/30 column (Amersham Biosciences). The column is equilibrated in a buffer of Tris/HCl 50 mM pH7.5, NaCl 200 mM, DTE 0.2 mM at 4° C. with a flow rate of 0.5 ml/min. A sample of constant volume (200 μl), at a concentration of 0.3 μM, is injected onto the column at a rate of 0.5 ml/min. The proteins are diluted in the equilibration buffer of the column and allowed to stand at 4° C. for 2 hours before injection in order to allow them to equilibrate. In order to detect elution of the proteins, an RF-10 AXL spectrofluorimeter (Shimadzu) is connected on-line to the AKTA apparatus. The intrinsic fluorescence is recorded, measuring the emission of fluorescence of the tyrosine residues at 310 nm after excitation at 280 nm.

| inhibition of TNFα-dependent activation of the NF-κB pathway (NF-κB pathway) [%] | Substance | effect of the mutation on the stability of the dimer (elution profile on gel filtration) [1] |
| --- | --- | --- |
| 95 | A323P: human NEMO protein with point mutation Ala323Pro (position 316 in the mouse), cause of incontinentia pigmenti |  |
| 78 | F312A: human NEMO / CC2-LZ protein with point mutation Phe312Ala (position 305 in the mouse), within the ubiquitin-binding site | does not affect the stability of the dimer |
